Measurements: patent US20250000882A1, “LYSOPHOSPHATIDYLCHOLINE COMBINATIONS AS A THERAPY TO TREAT CARDIAC ARREST” (THE FEINSTEIN INSTITUTES FOR MEDICAL RESEARCH, priority 2021, published 2025)

Legend:
neuronal cells = details: rats supplemented with LPC; cited from earlier work
IL-10 = assay: Plasma IL-10 level, 10 minutes of asphyxia-induced cardiac arrest rat model; format: in vivo; details: after 10 minutes of cardiac arrest
Procedure: (§1) Using the 10 minutes of asphyxia-induced cardiac arrest rat model, supplementing LPC (18:1) decreased inflammatory IL-6′ levels and increased the anti-inflammatory IL-10 levels in rat plasma after 10 minutes of cardiac arrest (FIG. 15A and FIG. 15B).

[1] = test system: neurons in hippocampal CA1 region and cortex; assay: Brain histology (Nissl and Fluoro-Jade B staining) at 72 hours post-resuscitation; format: in vivo, rat; details: for number of neurons in the hippocampus (Nissl staining), % of control values: 10-minute cardiac arrest; for degenerating cells in the cortex (FJB staining), fold increase compared with control value: vehicle seven-fold
Procedure: (§2) The study was conducted using adult male Sprague-Dawley rats (400-500 g, Charles River Laboratories, Wilmington, MA) utilizing procedures for asphyxia-induced cardiac arrest and cardiopulmonary resuscitation (CPR). Briefly, asphyxial cardiac arrest was induced by stopping ventilation after injecting vecuronium bromide (2 mg/kg). After 10 or 14 minutes of asphyxia-cardiac arrest, ventilation was restarted with chest compressions. Typically, rats achieve ROSC within 1 minute after the initiation of CPR. Rats were extubated 2 hours after ROSC. Blood samples were collected from the femoral artery at baseline and multiple time points during cardiac arrest or postresuscitation. Plasma was separated using centrifugation at 1,000×g for 10 minute and stored at −80° C. Brain tissue was harvested from animals that survived for 72 hours after perfusion with saline and fixed with 4% paraformaldehyde.
Plasma phospholipids were analyzed using plasma samples obtained from humans and rats following our established high-performance liquid chromatography-mass spectrometry (HPLC-MS) method. For brain histology, serial coronal sections (14 μm) were prepared from the fixed brain tissue using a cryostat (CM1900, Leica, Germany). The sections were used for Nissl staining to determine the number of surviving neurons in hippocampal CA1 region or Fluoro-Jade B (FJB) staining to count the number of degenerative neurons in the cortex.

[2] = test system: rats after 12 minutes of asphyxia-induced cardiac arrest; assay: 12 minutes of asphyxia-induced cardiac arrest rat model (survival, plasma troponin I, SSEP); format: in vivo; details: 12 minutes of cardiac arrest
Procedure: as §2
The therapeutic effects of LPC species as well as combination of all three species was then tested using 12 minutes of cardiac arrest, which induces more severe injury than 10 minutes of cardiac arrest. […] Also compared was the plasma troponin I level to assess the effects of individual LPC species LPC (18:0), LPC (18:1), LPC (22:6) and the LPC Combination for heart function (see FIG. 8 and FIG. 9 respectively). […] Since these rats are severely injured and mNDS are not appropriate to measure their brain function, we used SSEP to compare the brain function between LPC (18:1) and LPC combination groups.

IL-6 = assay: Plasma IL-6 level, 10 minutes of asphyxia-induced cardiac arrest rat model; format: in vivo; details: after 10 minutes of cardiac arrest
Procedure: as §1

[3] = test system: rats after 10 minutes of asphyxia-induced cardiac arrest; assay: Rat survival and neurologic function (mNDS) after 10-minute asphyxia-induced cardiac arrest with LPC supplementation; format: in vivo; details: for rat survival for 72 hr after resuscitation (Kaplan-Meier) / modified neurologic deficit score (mNDS) at 24 hours / modified neurologic deficit score (mNDS) at 72 hours: 10-minute cardiac arrest; for rat survival for 72 hr after resuscitation (Kaplan-Meier): 6 mg/kg LPC via femoral vein 1 minute after ROSC, vs vehicle; for modified neurologic deficit score (mNDS) at 24 hours / modified neurologic deficit score (mNDS) at 72 hours: surviving rats, 6 mg/kg, 100% = perfect score
Procedure: as §2
To test the beneficial effect of LPC supplementation, LPC (18:1) was first administered because it was the only commercially available species out of the four LPC species decreased after 10 minute of cardiac arrest. The study was then extended to test the effect of attached fatty acid by including custom-made LPC (22:6) and LPC (18:0). Different groups of control rats for each set of experiment for accurate assessment were used. Rats were randomized into each group (n=12). Baseline characteristics of rats were not different between the groups in each set of experiment.
The LPC species mixed with 0.5% bovine serum albumin (BSA) in phosphate-buffered saline (0.5 mL) was injected over 1 minute via the femoral vein cannula beginning 1 minute after ROSC, with vehicle group injected with only BSA. 6 mg/kg of LPC was injected, because this dosage preserved LPC level in post-resuscitation plasma for 2 hours after 10-minute cardiac arrest. The purities of the injected LPC species were over 98%.
Survival was followed for 72 hours with brain function evaluated in a blinded manner using the modified neurologic deficit score (mNDS) after resuscitation for surviving rats. The mNDS is expressed as percentage, with 100% representing perfect score.
Kaplan-Meier curves compared survival between the LPC and vehicle groups using the Wilcoxon test. For phospholipids levels, Mann-Whitney U test was used to compare two independent groups. Repeated measures analysis of variance was used to compare the vital signs between two groups. Spearman correlation coefficients were calculated to evaluate the correlation between blood pH and plasma LPC levels. For changes in plasma LPC levels postreperfusion, we performed Jonckheere-Terpstra test. Statistical analyses were performed using the JMP software (Version 14.2, SAS Institute, Cary, NC). p values of less than 0.05 were considered statistically significant. Data were expressed as the mean±se of the mean.

[4] = diet supplemented with LPC; cited from earlier work
heart = assay: Heart ejection fraction at 2 h after resuscitation; format: in vivo, rat; details: 10 min cardiac arrest per FIG. 13 legend
Procedure: (§3) The beneficial effects of LPC (18:2), LPC(20:4), and LPC (16:0) for their beneficial effects using the same cardiac arrest model were also tested. […] Furthermore, none of the LPC (18:2) treated rats were able to walk whereas 40 to 50% of LPC (22:6) and LPC (18:1) treated rats were able to walk.

lung = assay: Lung wet-to-dry weight ratio after cardiac arrest; format: in vivo, rat
Procedure: as §3

Row | Compound | number of neurons in the hippocampus (Nissl staining), % of control values [1] | degenerating cells in the cortex (FJB staining), fold increase compared with control value [1] | plasma troponin I level [2] | rat survival for 72 hr after resuscitation (Kaplan-Meier) [3] | modified neurologic deficit score (mNDS) at 24 hours [3] | modified neurologic deficit score (mNDS) at 72 hours [3] | further results
1 | CCCCCCCCCCCCCC(=O)OC[C@@H](O)COP(=O)([O-])OCC[N+](C)(C)C [LPC (14:0)] |  |  |  |  |  |  | protection of neuronal cells after brain ischemia (neuronal cells): provided protecting to neuronal cells
2 | lysophosphatidylcholine (18:1) [LPC (18:1)] | 86% | decreased to a three-fold increase | only the LPC Combination showed a decrease | significantly improved rat survival | 66% | 76% | anti-inflammatory IL-10 levels in rat plasma (IL-10): increased; rat survival (Kaplan-Meier) [2]: most significantly improved rat survival; return of the SSEP signal (brain function) [2]: did not happen; inflammatory IL-6 levels in rat plasma (IL-6): decreased
3 | lysophosphatidylcholine (22:6) [LPC (22:6)] | 88% | decreased to a three-fold increase | only the LPC Combination showed a decrease | improved rat survival | 51% | 86% | cognitive functions [4]: improved their cognitive functions
4 | lysophosphatidylcholine (18:2) [LPC (18:2)] |  |  |  |  |  |  | heart ejection fraction (heart): improved; neuroprotective effect (mNDS at 48 hours and 72 hours) ([3]; 10 min cardiac arrest per FIG. 12 legend): not as good as LPC (18:1) or LPC (22:6); rat survival (Kaplan-Meier) ([3]; "same cardiac arrest model", 10 min cardiac arrest per FIG. 11 legend): significantly improve survival; treated rats able to walk ([3]; after cardiac arrest): none; lung wet-to-dry ratio (lung): Reduced
5 | lysophosphatidylcholine (18:0) [LPC (18:0)] |  |  | only the LPC Combination showed a decrease | no improved outcomes |  |  | effect on neuronal cellular morphology [1]: minimal effect
